In US7786083B2, “Metastin derivatives and use thereof” (Takeda Pharmaceutical Company Limited, priority 2006, dated 2010):
*1 amine or outer side, *2 acyl side, *3 side chain or, on linkers, in order; H or OH if unused. Where a SMILES comes first, the peptide text is derived from it. [ ]: non-standard residue; d: D form. Hexanoyl(5S-NH,4S-OH,6-Ph) = O=C(CC[C@H](O)[C@H](Cc1ccccc1)N[*:1])[*:2]; Glyψ(E-CHCH)Leu = CC(C)C[C@H](/C=C/CN[*:1])C(=O)[*:2]; Glyψ(CH2S)Leu = CC(C)C[C@H](SCCN[*:1])C(=O)[*:2]; Phe(3-Me) = Cc1cccc(C[C@H](N)C(=O)O)c1; X1 = CC(C)C[C@H](CCCN[*:1])C(=O)[*:2]; Phe(2-Me) = Cc1ccccc1C[C@H](N)C(=O)O; Arg(Me) = CNC(=N)NCCC[C@H](N)C(=O)O; Dap(CONH2) = NC(=O)NC[C@H](N)C(=O)O; Ala(cPr) = N[C@@H](CC1CC1)C(=O)O; Hyp = O=C(O)[C@@H]1C[C@@H](O)CN1; 4Pal = N[C@@H](Cc1ccncc1)C(=O)O; Cha = N[C@@H](CC1CCCCC1)C(=O)O; Nle = CCCC[C@H](N)C(=O)O; Nva = CCC[C@H](N)C(=O)O; Dap = NC[C@H](N)C(=O)O; Aib = CC(C)(N)C(=O)O

System: metastin receptors
Test: Measurement of agonist activity by assaying changes in intracellular calcium ion level (FLIPR, Fluo-4 NW)
Type: cell-based, human
Settings: specific activity of the EC50 of a test compound based on the EC50 of Metastin (45-54), metastin receptor expression CHO cells
Procedure: 1) Preparation of Human Metastin and Rat Metastin Stable Expression Cell Lines
Human metastin and rat metastin stable expression cell lines were obtained by transfecting the expression plasmid for animal cells into CHO/dhfr^− cells using CellPhect Transfection Kit (manufactured by GE Healthcare). First, 240 μL of Buffer A (attached to CellPhect Transfection Kit) was added to 9.6 μg of plasmid DNA dissolved in 240 μL of distilled water followed by stirring. After the mixture was settled for 10 minutes, 480 μL of Buffer B (attached to CellPhect Transfection Kit) was added to the mixture, which was vigorously stirred to form liposomes containing the DNA. Then, 4×10^5 CHO/dhfr^− cells (obtained from ATCC) were inoculated on a 60 mm Petri dish. After culturing the cells in Ham's F-12 medium (manufactured by Nissui Seiyaku Co., Ltd.) supplemented with 10% fetal bovine serum (manufactured by BIO […], Inc.) at 37° C. for 2 days in 5% carbon dioxide gas, […] of the liposomes were dropwise added to the cells on the Petri dish. After culturing the cells in a CO2 incubator (5% CO2, 37° C.) for 6 hours, the cells were washed twice with serum-free Ham's F-12 medium and 3 mL of 15% glycerol was added to the cells on the Petri dish followed by treatment for 2 minutes. The cells were again washed twice with serum-free Ham's F-12 medium followed by incubation in Ham's F-12 medium supplemented with 10% fetal bovine serum in a CO2 incubator (5% CO2, 37° C.) for 15 hours. The cells were dispersed by trypsin treatment to recover from the Petri dish. The recovered cells were inoculated on a 6-well plate in 1.25×10^4 cells each/well and incubation was initiated in a CO2 incubator (5% CO2, 37° C.) in Dulbecco's modified Eagle medium (DMEM, manufactured by Nissui Seiyaku) containing 10% dialyzed fetal bovine serum (manufactured by JRH BIOSCIENCES, Inc.). The plasmid-transfected CHO transformants grew in the medium but the non-transfected cells gradually died, accordingly the medium was exchanged on Days 1 and 2 after the initiation of incubation to remove the dead cells. Approximately 20 colonies of the CHO transformants that kept growing on Days 8 to 10 after the incubation were isolated. From the cells in these colonies, cells showing high reactivity with the ligand peptide metastin (hereinafter merely referred to as h175 KB19 and h175 KB29 strains) were selected to provide for the following experiment.
Human metastin expression CHO cell line (h175 KB19 strain is described in a separate section) and rat metastin expression CHO cell line (h175 KB29 strain is described in a separate section) were seeded in a 96-well plate (type 3904, manufactured by Corning) at 3×10^4 cells/well, followed by incubation in a CO2 incubator (5% CO2, 37° C.) for 24 hours. For the medium, MEMα medium (nucleic acid-free, manufactured by Nikken Bio Medical Laboratory) supplemented with dialyzed 10% fetal bovine serum (manufactured by Thermo, MultiSer) was used.
3) Loading with Fluo-4 NW in Cells
As an assay buffer, 1× Hanks' balanced salt solution (HBSS, manufactured by GIBCO) supplemented with 0.1% BSA, 20 mM HEPES (pH 7.4, manufactured by GIBCO) and 1 mM Probenecid (manufactured by Molecular Probes) was prepared. The medium in the wells of the cell-seeded plate was removed and 100 μL each of the assay buffer (kept warm at 37° C.) was added to each well. After 10 mL of the assay buffer (the volume for assaying two plates) was charged in one Fluo-4NW dye mix (Component A, Fluo-4 NW calcium assay kit (starter pack), manufactured by Molecular Probes) bottle, the mixture was gently stirred to prepare the Fluo-4 NW loading solution. This loading solution was charged in each well by 50 μl each and reacted in a CO2 incubator (5% CO2, 37° C.) for 30 minutes for loading with Fluo-4 NW into the cells. Subsequently, the cells were settled at room temperature (25° C.) for 15 minutes and then used for assay.
4) Measurement of Agonist Activity […]

## CNC(=N)NCCC[C@H](NC(=O)[C@H](CC(C)C)NC(=O)NCC[C@H](Cc1ccccc1)NC(=O)[C@@H](NC(=O)[C@H](CC(N)=O)NC(=O)[C@@H]1C[C@@H](O)CN1C(=O)[C@@H](Cc1ccc(O)cc1)NC(C)=O)[C@@H](C)O)C(=O)N[C@@H](Cc1c[nH]c2ccccc12)C(N)=O [Compound No. 968, des(1)-Ac-[D-Tyr2,Hyp3,Thr5,Phe6Ψ(CH2CH2)AzaGly7,Arg(Me)9,Trp10)MS10]
  Specific Activity: 0.6

## CNC(=N)NCCC[C@H](NC(=O)[C@H](CC(C)C)NC(=O)CNC(=O)[C@H](Cc1ccncc1)NC(=O)[C@@H](NC(=O)[C@H](CC(N)=O)NC(=O)[C@@H]1C[C@@H](O)CN1C(=O)[C@@H](Cc1ccc(O)cc1)NC(C)=O)[C@@H](C)O)C(=O)N[C@@H](Cc1c[nH]c2ccccc12)C(N)=O [Compound No. 849, des(1)-Ac-[D-Tyr2,Hyp3,Thr5,Pya(4)6,Arg(Me)9,Trp10]MS10] (Ac-[dY][Hyp]NT[4Pal]GL[Arg(Me)]W-NH2)
  Specific Activity: 0.9

## CNC(=N)NCCC[C@H](NC(=O)[C@H](CC1CC1)NC(=O)CNC(=O)[C@H](CC1CCCCC1)NC(=O)[C@@H](NC(=O)[C@H](CC(N)=O)NC(=O)C(C)(C)NC(=O)[C@@H](Cc1ccc(O)cc1)NC(C)=O)[C@@H](C)O)C(=O)N[C@@H](Cc1c[nH]c2ccccc12)C(N)=O [Compound No. 912, des(1)-Ac-[D-Tyr2,Aib3,Thr5,Cha6,Ala(cPr)8,Arg(Me)9,Trp10]MS10] (Ac-[dY][Aib]NT[Cha]G[Ala(cPr)][Arg(Me)]W-NH2)
  Specific Activity: 0.6

## CNC(=N)NCCC[C@H](NC(=O)[C@H](CC(C)C)NC(=O)CC[C@H](O)[C@H](Cc1ccccc1)NC(=O)[C@@H](NC(=O)[C@H](CC(N)=O)NC(=O)[C@@H]1C[C@@H](O)CN1C(=O)[C@@H](Cc1ccc(O)cc1)NC(C)=O)[C@@H](C)O)C(=O)N[C@@H](Cc1c[nH]c2ccccc12)C(N)=O [Compound No. 857, des(1)-Ac-[D-Tyr2,Hyp3,Thr5,Phe6Ψ((S)CHOH—CH2)Gly7,Arg(Me)9,Trp10]MS10] (Ac-[dY][Hyp]NT[Hexanoyl(5S-NH,4S-OH,6-Ph)]L[Arg(Me)]W-NH2)
  Specific Activity: 1.2

## CNC(=N)NCCC[C@H](NC(=O)[C@H](CC(C)C)NC(=O)CNC(=O)[C@H](Cc1ccccc1C)NC(=O)[C@@H](NC(=O)[C@H](CC(N)=O)NC(=O)[C@@H]1C[C@@H](O)CN1C(=O)[C@@H](Cc1ccc(O)cc1)NC(C)=O)[C@@H](C)O)C(=O)N[C@@H](Cc1c[nH]c2ccccc12)C(N)=O [Compound No. 871, des(1)-Ac-[D-Tyr2,Hyp3,Thr5,Phe(2Me)6,Arg(Me)9,Trp10]MS10] (Ac-[dY][Hyp]NT[Phe(2-Me)]GL[Arg(Me)]W-NH2)
  Specific Activity: 0.7

## CNC(=N)NCCC[C@H](NC(=O)[C@H](CC1CC1)NC(=O)CNC(=O)[C@H](CC1CCCCC1)NC(=O)CNC(=O)[C@H](CNC(N)=O)NC(=O)[C@@H]1C[C@@H](O)CN1C(=O)[C@@H](Cc1ccc(O)cc1)NC(C)=O)C(=O)N[C@@H](Cc1c[nH]c2ccccc12)C(N)=O [Compound No. 949, des(1)-Ac-[D-Tyr2,Hyp3,Alb4,Gly5,Cha6,Ala(cPr)8,Arg(Me)9,Trp10]MS10] (Ac-[dY][Hyp][Dap(CONH2)]G[Cha]G[Ala(cPr)][Arg(Me)]W-NH2)
  Specific Activity: 0.7

## CNC(=N)NCCC[C@H](NC(=O)[C@@H](CCCNC(=O)[C@H](Cc1ccccc1)NC(=O)[C@@H](NC(=O)[C@H](CC(N)=O)NC(=O)[C@@H]1C[C@@H](O)CN1C(=O)[C@@H](Cc1ccc(O)cc1)NC(C)=O)[C@@H](C)O)CC(C)C)C(=O)N[C@@H](Cc1c[nH]c2ccccc12)C(N)=O [Compound No. 893, des(1)-Ac-[D-Tyr2,Hyp3,Thr5,Gly7Ψ((E)CH2CH2)Leu8,Arg(Me)9,Trp10]MS10] (Ac-[dY][Hyp]NTF[X1][Arg(Me)]W-NH2)
  Specific Activity: 0.8

## CNC(=N)NCCC[C@H](NC(=O)[C@H](CC(C)C)NC(=O)CNC(=O)[C@H](Cc1cccc(C)c1)NC(=O)[C@@H](NC(=O)[C@H](CC(N)=O)NC(=O)[C@@H]1C[C@@H](O)CN1C(=O)[C@@H](Cc1ccc(O)cc1)NC(C)=O)[C@@H](C)O)C(=O)N[C@@H](Cc1c[nH]c2ccccc12)C(N)=O [Compound No. 873, des(1)-Ac-[D-Tyr2,Hyp3,Thr5,Phe(3Me)6,Arg(Me)9,Trp10]MS10] (Ac-[dY][Hyp]NT[Phe(3-Me)]GL[Arg(Me)]W-NH2)
  Specific Activity: 0.8

## CCC[C@H](NC(=O)CNC(=O)[C@H](CC1CCCCC1)NC(=O)[C@@H](NC(=O)[C@H](CC(N)=O)NC(=O)[C@H](CCC(=O)O)NC(=O)[C@@H](Cc1ccc(O)cc1)NC(C)=O)[C@@H](C)O)C(=O)N[C@@H](CCCNC(=N)NC)C(=O)N[C@@H](Cc1c[nH]c2ccccc12)C(N)=O [Compound No. 924, des(1)-Ac-[D-Tyr2,Glu3,Thr5,Cha6,Nva8,Arg(Me)9,Trp10]MS10] (Ac-[dY]ENT[Cha]G[Nva][Arg(Me)]W-NH2)
  Specific Activity: 0.4

## CNC(=N)NCCC[C@H](NC(=O)[C@H](CC(C)C)NC(=O)[C@H](CN)NC(=O)[C@H](Cc1ccccc1)NC(=O)[C@@H](NC(=O)[C@H](CC(N)=O)NC(=O)[C@@H]1C[C@@H](O)CN1C(=O)[C@@H](Cc1ccc(O)cc1)NC(C)=O)[C@@H](C)O)C(=O)N[C@@H](Cc1c[nH]c2ccccc12)C(N)=O [Compound No. 827, des(1)-Ac-[D-Tyr2,Hyp3,Thr5,Dap7,Arg(Me)9,Trp10]MS10] (Ac-[dY][Hyp]NTF[Dap]L[Arg(Me)]W-NH2)
  Specific Activity: 1.3

## CNC(=N)NCCC[C@H](NC(=O)[C@@H](/C=C/CNC(=O)[C@H](CC1CCCCC1)NC(=O)[C@@H](NC(=O)[C@H](CNC(N)=O)NC(=O)[C@H](CCC(=O)O)NC(=O)[C@@H](Cc1ccc(O)cc1)NC(C)=O)[C@@H](C)O)CC(C)C)C(=O)N[C@@H](Cc1c[nH]c2ccccc12)C(N)=O [Compound No. 905, des(1)-Ac-[D-Tyr2,Glu3,Alb4,Thr5,Cha6,Gly7Ψ((E)CH═CH)Leu8,Arg(Me)9,Trp10]MS10] (Ac-[dY]E[Dap(CONH2)]T[Cha][Glyψ(E-CHCH)Leu][Arg(Me)]W-NH2)
  Specific Activity: 0.5

## CCCC[C@H](NC(=O)CNC(=O)[C@H](CC1CCCCC1)NC(=O)[C@@H](NC(=O)[C@H](CC(N)=O)NC(=O)[C@@H]1C[C@@H](O)CN1C(=O)[C@@H](Cc1ccc(O)cc1)NC(C)=O)[C@@H](C)O)C(=O)N[C@@H](CCCNC(=N)NC)C(=O)N[C@@H](Cc1c[nH]c2ccccc12)C(N)=O [Compound No. 932, des(1)-Ac-[D-Tyr2,Hyp3,Thr5,Cha6,Nle8,Arg(Me)9,Trp10]MS10] (Ac-[dY][Hyp]NT[Cha]G[Nle][Arg(Me)]W-NH2)
  Specific Activity: 0.6

## CNC(=N)NCCC[C@H](NC(=O)[C@@H](CCCNC(=O)[C@H](CC1CCCCC1)NC(=O)[C@@H](NC(=O)[C@H](CNC(N)=O)NC(=O)[C@@H]1C[C@@H](O)CN1C(=O)[C@@H](Cc1ccc(O)cc1)NC(C)=O)[C@@H](C)O)CC(C)C)C(=O)N[C@@H](Cc1c[nH]c2ccccc12)C(N)=O [Compound No. 957, des(1)-Ac-[D-Tyr2,Hyp3,Alb4,Thr5,Cha6,Gly7Ψ(CH2CH2)Leu8,Arg(Me)9,Trp10]MS10] (Ac-[dY][Hyp][Dap(CONH2)]T[Cha][X1][Arg(Me)]W-NH2)
  Specific Activity: 1.1

## CNC(=N)NCCC[C@H](NC(=O)[C@H](CC(C)C)SCCNC(=O)[C@H](CC1CCCCC1)NC(=O)[C@@H](NC(=O)[C@H](CC(N)=O)NC(=O)[C@@H]1C[C@@H](O)CN1C(=O)[C@@H](Cc1ccc(O)cc1)NC(C)=O)[C@@H](C)O)C(=O)N[C@@H](Cc1c[nH]c2ccccc12)C(N)=O [Compound No. 931, des(1)-Ac-[D-Tyr2,Hyp3,Thr5,Cha6,Gly7Ψ(CH2S)Leu8,Arg(Me)9,Trp10]MS10] (Ac-[dY][Hyp]NT[Cha][Glyψ(CH2S)Leu][Arg(Me)]W-NH2)
  Specific Activity: 1.7
